Reference: US10724099B2, “Multiplex methods to assay mixed cell populations simultaneously” (The Broad Institute, Inc., priority 2012, dated 2020)

Experiments:
[1] = biological target: T1, PDPK1 (Homo sapiens, UniProt O15530); test: DiscoveRx KinomeScan binding
T1 construct: purchased DiscoveRx scanEDGE panel (KinomeScan)

[2] = biological target: T2, DYRK1B (Homo sapiens, UniProt Q9Y463); test: DiscoveRx KinomeScan binding
T2 construct: purchased DiscoveRx scanEDGE panel

[3] = biological target: T3, AXL (Homo sapiens, UniProt P30530); test: DiscoveRx KinomeScan binding
T3 construct: purchased DiscoveRx (KINOMEscan scanEDGE panel)

[4] = tested on: HCT-116 cells; test: Western blot phosphoserine 10-histone H3; assay type: cell-based; details: 10 μM
Description: Finally, HCT-116 cells were treated with 10 μM of DMSO, barasertib, GSK1070916, MLN8054, BRD-7880, or tozasertib. Cells lysates were probed on Western blot using antibodies (diluted 1:1000) to histone H3 (Abcam cat. no. 24834), phosphoserine 10-histone H3 (Cell Signaling Technology cat no. 3377SS), aurora kinase B (Millipore cat. no. 04-1036), or beta-actin (Santa Cruz Biotechnology cat. no. sc-47778) and detected using a LI-COR Odyssey analyzer.

[5] = biological target: T4, EGFR(L858R) (Homo sapiens, UniProt P00533, L858R); test: DiscoveRx KinomeScan binding
T4 construct: purchased DiscoveRx scanEDGE panel

[6] = biological target: T5, SNARK (Homo sapiens, UniProt Q9H093); test: DiscoveRx KinomeScan binding; details: Entrez NUAK2
T5 construct: purchased DiscoveRx scanEDGE panel

[7] = biological target: T6, CDK11 (Homo sapiens, UniProt Q9BWU1); test: DiscoveRx KinomeScan binding; details: Entrez CDK19
T6 construct: purchased DiscoveRx (KINOMEscan scanEDGE panel)

[8] = biological target: T7, CSNK1G2 (Homo sapiens, UniProt P78368); test: DiscoveRx KinomeScan binding
T7 construct: purchased DiscoveRx scanEDGE panel

[9] = biological target: T8, PDGFRA (Homo sapiens, UniProt P16234); test: DiscoveRx KinomeScan binding
T8 construct: purchased DiscoveRx scanEDGE panel (KinomeScan)

[10] = biological target: T9, AKT2 (Homo sapiens, UniProt P31751); test: DiscoveRx KinomeScan binding
T9 construct: purchased DiscoveRx (KINOMEscan scanEDGE panel)
T9 sequence (P31751 whole entry): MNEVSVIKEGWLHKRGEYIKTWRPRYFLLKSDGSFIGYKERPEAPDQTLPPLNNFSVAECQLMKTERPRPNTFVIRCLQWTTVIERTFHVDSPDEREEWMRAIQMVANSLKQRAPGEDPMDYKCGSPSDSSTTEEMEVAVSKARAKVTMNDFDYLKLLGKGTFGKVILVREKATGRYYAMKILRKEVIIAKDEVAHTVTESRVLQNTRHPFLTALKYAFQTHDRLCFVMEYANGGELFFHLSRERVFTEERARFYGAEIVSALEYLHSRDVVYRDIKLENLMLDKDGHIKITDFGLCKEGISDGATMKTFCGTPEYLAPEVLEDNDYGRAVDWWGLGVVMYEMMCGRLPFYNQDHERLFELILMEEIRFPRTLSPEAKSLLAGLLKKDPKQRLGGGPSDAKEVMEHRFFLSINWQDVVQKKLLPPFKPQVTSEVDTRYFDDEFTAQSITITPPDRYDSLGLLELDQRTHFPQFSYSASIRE

[11] = biological target: T10, RIOK2 (Homo sapiens, UniProt Q9BVS4); test: DiscoveRx KinomeScan binding
T10 construct: purchased DiscoveRx scanEDGE panel

[12] = biological target: T11, MARK3 (Homo sapiens, UniProt P27448); test: DiscoveRx KinomeScan binding
T11 construct: purchased DiscoveRx scanEDGE panel (KinomeScan)
T11 sequence (P27448 whole entry): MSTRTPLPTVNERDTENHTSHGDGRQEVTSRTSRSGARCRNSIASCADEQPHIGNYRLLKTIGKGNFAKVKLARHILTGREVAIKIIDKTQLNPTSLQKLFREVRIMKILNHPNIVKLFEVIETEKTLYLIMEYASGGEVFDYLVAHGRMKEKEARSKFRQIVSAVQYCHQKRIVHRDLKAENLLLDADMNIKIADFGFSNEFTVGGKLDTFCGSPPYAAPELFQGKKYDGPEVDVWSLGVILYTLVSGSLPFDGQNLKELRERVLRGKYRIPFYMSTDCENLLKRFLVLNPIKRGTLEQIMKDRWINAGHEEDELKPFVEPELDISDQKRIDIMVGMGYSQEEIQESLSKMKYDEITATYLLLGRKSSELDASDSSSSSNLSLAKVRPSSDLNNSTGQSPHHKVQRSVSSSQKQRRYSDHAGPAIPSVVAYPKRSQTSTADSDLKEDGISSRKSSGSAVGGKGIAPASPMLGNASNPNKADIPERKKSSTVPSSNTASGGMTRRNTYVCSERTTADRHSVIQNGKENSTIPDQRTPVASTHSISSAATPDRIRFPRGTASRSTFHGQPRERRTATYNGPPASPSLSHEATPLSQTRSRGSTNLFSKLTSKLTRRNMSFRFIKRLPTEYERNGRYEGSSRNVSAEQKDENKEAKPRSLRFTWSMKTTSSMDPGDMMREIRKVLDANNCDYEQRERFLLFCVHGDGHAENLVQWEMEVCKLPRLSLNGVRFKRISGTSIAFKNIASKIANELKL

[13] = biological target: T12, CSF1R (Homo sapiens, UniProt P07333); test: DiscoveRx KinomeScan binding
T12 construct: purchased DiscoveRx scanEDGE panel
T12 sequence (P07333 20-972): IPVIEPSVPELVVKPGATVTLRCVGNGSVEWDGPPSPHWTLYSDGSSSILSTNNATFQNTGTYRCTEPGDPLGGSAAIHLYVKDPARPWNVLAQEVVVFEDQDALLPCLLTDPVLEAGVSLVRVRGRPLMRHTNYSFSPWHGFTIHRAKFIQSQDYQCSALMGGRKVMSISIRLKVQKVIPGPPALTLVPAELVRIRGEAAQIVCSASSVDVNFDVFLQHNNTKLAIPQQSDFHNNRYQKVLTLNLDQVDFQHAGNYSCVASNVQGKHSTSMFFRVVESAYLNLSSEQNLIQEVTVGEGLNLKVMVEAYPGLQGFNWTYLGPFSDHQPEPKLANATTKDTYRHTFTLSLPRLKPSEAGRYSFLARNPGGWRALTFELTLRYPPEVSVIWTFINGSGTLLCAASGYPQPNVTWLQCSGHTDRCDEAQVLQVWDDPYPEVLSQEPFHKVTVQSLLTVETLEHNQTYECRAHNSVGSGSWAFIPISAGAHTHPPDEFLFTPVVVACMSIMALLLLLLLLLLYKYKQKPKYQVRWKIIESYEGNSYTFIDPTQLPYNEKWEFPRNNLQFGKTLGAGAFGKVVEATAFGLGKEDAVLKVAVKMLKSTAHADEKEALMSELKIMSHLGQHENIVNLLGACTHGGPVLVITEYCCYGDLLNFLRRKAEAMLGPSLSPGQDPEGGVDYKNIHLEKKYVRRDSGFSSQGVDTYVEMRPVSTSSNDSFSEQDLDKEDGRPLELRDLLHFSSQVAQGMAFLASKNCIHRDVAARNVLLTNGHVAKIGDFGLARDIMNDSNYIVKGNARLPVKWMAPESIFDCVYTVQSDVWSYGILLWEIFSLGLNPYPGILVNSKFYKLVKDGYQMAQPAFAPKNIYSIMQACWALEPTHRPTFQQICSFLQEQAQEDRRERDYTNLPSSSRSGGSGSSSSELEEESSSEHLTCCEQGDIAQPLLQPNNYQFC

[14] = biological target: T13, PIM2 (Homo sapiens, UniProt Q9P1W9); test: DiscoveRx KinomeScan binding
T13 construct: purchased DiscoveRx scanEDGE panel

[15] = biological target: T14, ADCK3 (Homo sapiens, UniProt Q8NI60); test: DiscoveRx KinomeScan binding; details: Entrez CABC1
T14 construct: purchased DiscoveRx (KINOMEscan scanEDGE panel)
T14 sequence (Q8NI60 163-647): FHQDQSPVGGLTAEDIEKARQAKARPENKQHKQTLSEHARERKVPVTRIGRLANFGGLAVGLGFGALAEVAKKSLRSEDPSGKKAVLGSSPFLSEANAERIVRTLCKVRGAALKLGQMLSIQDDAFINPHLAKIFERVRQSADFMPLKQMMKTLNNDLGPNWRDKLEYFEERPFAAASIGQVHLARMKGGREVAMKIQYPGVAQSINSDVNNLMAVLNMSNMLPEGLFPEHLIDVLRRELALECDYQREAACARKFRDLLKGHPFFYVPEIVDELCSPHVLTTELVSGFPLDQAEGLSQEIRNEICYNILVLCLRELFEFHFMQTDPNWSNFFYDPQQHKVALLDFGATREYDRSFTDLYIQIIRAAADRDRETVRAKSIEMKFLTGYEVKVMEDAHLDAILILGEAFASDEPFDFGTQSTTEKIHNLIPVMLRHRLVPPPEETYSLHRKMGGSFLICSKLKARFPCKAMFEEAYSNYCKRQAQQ

[16] = biological target: T15, ACVR1B (Homo sapiens, UniProt P36896); test: DiscoveRx KinomeScan binding
T15 construct: purchased DiscoveRx (KINOMEscan scanEDGE panel)
T15 sequence (P36896 24-505): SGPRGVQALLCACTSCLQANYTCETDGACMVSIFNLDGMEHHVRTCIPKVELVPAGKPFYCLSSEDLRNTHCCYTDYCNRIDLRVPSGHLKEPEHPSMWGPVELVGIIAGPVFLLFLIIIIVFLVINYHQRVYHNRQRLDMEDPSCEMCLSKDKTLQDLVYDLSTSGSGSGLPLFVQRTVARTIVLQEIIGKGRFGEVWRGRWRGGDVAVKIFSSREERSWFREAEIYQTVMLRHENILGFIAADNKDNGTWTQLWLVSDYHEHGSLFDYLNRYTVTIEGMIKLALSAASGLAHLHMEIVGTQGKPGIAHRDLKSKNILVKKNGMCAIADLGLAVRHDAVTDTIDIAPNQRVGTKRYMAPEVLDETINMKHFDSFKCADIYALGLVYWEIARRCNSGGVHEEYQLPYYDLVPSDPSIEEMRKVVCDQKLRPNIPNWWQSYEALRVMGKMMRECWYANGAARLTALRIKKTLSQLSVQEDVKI

[17] = biological target: T16, GSK3B (Homo sapiens, UniProt P49841); test: DiscoveRx KinomeScan binding
T16 construct: purchased DiscoveRx scanEDGE panel

[18] = biological target: T17, PAK2 (Homo sapiens, UniProt Q13177); test: DiscoveRx KinomeScan binding
T17 construct: purchased DiscoveRx scanEDGE panel (KinomeScan)

[19] = biological target: T18, PAK1 (Homo sapiens, UniProt Q13153); test: DiscoveRx KinomeScan binding
T18 construct: purchased DiscoveRx scanEDGE panel (KinomeScan)

[20] = biological target: T19, FGFR3 (Homo sapiens, UniProt P22607); test: DiscoveRx KinomeScan binding
T19 construct: purchased DiscoveRx scanEDGE panel

[21] = biological target: T20, VEGFR2 (Homo sapiens, UniProt P35968); test: DiscoveRx KinomeScan binding; details: Entrez KDR
T20 construct: purchased DiscoveRx scanEDGE panel

[22] = biological target: T21, TIE2 (Homo sapiens, UniProt Q02763); test: DiscoveRx KinomeScan binding; details: Entrez TEK
T21 construct: purchased DiscoveRx scanEDGE panel

[23] = biological target: T22, ALK (Homo sapiens, UniProt Q9UM73); test: DiscoveRx KinomeScan binding
T22 construct: purchased DiscoveRx (KINOMEscan scanEDGE panel)

[24] = biological target: T23, PCTK1 (Homo sapiens, UniProt Q00536); test: DiscoveRx KinomeScan binding; details: Entrez CDK16
T23 construct: purchased DiscoveRx scanEDGE panel (KinomeScan)
T23 sequence (Q00536 whole entry): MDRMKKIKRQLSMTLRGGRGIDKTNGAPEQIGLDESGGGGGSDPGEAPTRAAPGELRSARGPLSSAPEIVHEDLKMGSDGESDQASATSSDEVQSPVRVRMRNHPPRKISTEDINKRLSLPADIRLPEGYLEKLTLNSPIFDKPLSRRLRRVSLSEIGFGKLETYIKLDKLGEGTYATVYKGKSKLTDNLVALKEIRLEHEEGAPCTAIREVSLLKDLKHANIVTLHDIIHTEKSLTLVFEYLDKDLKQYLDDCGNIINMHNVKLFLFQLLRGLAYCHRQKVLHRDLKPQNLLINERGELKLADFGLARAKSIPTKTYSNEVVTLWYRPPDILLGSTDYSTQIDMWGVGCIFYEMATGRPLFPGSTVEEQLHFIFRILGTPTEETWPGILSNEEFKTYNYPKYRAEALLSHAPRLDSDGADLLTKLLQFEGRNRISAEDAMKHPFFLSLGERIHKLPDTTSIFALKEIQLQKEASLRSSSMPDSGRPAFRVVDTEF

[25] = biological target: T24, JNK1 (Homo sapiens, UniProt P45983); test: DiscoveRx KinomeScan binding; details: Entrez MAPK8
T24 construct: purchased DiscoveRx scanEDGE panel

[26] = biological target: T25, CDK3 (Homo sapiens, UniProt Q00526); test: DiscoveRx KinomeScan binding
T25 construct: purchased DiscoveRx (KINOMEscan scanEDGE panel)

[27] = biological target: T26, CDK7 (Homo sapiens, UniProt P50613); test: DiscoveRx KinomeScan binding
T26 construct: purchased DiscoveRx (KINOMEscan scanEDGE panel)

[28] = biological target: T27, EGFR (Homo sapiens, UniProt P00533); test: DiscoveRx KinomeScan binding
T27 construct: purchased DiscoveRx scanEDGE panel

[29] = biological target: T28, BRAF (Homo sapiens, UniProt P15056); test: DiscoveRx KinomeScan binding
T28 construct: purchased DiscoveRx (KINOMEscan scanEDGE panel)

[30] = biological target: T29, MAPKAPK2 (Homo sapiens, UniProt P49137); test: DiscoveRx KinomeScan binding
T29 construct: purchased DiscoveRx scanEDGE panel (KinomeScan)

[31] = biological target: T30, ROCK2 (Homo sapiens, UniProt O75116); test: DiscoveRx KinomeScan binding
T30 construct: purchased DiscoveRx scanEDGE panel

[32] = biological target: T31, PDGFRB (Homo sapiens, UniProt P09619); test: DiscoveRx KinomeScan binding
T31 construct: purchased DiscoveRx scanEDGE panel (KinomeScan)

[33] = biological target: T32, MEK1 (Homo sapiens, UniProt Q02750); test: DiscoveRx KinomeScan binding; details: Entrez MAP2K1
T32 construct: purchased DiscoveRx scanEDGE panel (KinomeScan)
T32 sequence (Q02750 whole entry): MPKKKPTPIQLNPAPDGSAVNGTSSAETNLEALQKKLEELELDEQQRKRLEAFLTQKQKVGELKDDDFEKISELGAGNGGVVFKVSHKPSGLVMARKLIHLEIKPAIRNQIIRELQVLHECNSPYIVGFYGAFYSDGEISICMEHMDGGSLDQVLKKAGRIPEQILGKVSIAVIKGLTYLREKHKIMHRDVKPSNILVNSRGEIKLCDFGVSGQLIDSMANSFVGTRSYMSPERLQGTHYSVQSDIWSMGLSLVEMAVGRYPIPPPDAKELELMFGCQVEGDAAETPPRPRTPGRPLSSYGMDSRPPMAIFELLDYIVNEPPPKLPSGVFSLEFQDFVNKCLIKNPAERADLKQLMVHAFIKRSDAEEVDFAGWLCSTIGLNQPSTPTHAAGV

[34] = biological target: T33, AURKB (Homo sapiens, UniProt Q96GD4); test: DiscoveRx KinomeScan binding
T33 construct: purchased DiscoveRx (KINOMEscan scanEDGE panel)
T33 sequence (Q96GD4 whole entry): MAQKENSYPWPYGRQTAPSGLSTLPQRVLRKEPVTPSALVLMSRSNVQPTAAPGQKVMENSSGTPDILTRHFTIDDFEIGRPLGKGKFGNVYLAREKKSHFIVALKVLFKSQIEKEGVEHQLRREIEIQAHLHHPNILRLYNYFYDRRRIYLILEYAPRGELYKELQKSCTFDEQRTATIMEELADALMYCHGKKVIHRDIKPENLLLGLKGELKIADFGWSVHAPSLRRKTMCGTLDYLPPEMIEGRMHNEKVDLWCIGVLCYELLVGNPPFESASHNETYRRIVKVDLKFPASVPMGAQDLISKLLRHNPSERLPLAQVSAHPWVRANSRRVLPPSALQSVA

[35] = biological target: T34, PRKCE (Homo sapiens, UniProt Q02156); test: DiscoveRx KinomeScan binding
T34 construct: purchased DiscoveRx scanEDGE panel

[36] = biological target: T35, FGFR2 (Homo sapiens, UniProt P21802); test: DiscoveRx KinomeScan binding
T35 construct: purchased DiscoveRx scanEDGE panel

[37] = biological target: T36, CDK2 (Homo sapiens, UniProt P24941); test: DiscoveRx KinomeScan binding
T36 construct: purchased DiscoveRx (KINOMEscan scanEDGE panel)

[38] = biological target: T37, MET (Homo sapiens, UniProt P08581); test: DiscoveRx KinomeScan binding
T37 construct: purchased DiscoveRx scanEDGE panel (KinomeScan)

[39] = biological target: T38, BTK (Homo sapiens, UniProt Q06187); test: DiscoveRx KinomeScan binding
T38 construct: purchased DiscoveRx (KINOMEscan scanEDGE panel)

T2 sequence (Q9Y463 whole entry): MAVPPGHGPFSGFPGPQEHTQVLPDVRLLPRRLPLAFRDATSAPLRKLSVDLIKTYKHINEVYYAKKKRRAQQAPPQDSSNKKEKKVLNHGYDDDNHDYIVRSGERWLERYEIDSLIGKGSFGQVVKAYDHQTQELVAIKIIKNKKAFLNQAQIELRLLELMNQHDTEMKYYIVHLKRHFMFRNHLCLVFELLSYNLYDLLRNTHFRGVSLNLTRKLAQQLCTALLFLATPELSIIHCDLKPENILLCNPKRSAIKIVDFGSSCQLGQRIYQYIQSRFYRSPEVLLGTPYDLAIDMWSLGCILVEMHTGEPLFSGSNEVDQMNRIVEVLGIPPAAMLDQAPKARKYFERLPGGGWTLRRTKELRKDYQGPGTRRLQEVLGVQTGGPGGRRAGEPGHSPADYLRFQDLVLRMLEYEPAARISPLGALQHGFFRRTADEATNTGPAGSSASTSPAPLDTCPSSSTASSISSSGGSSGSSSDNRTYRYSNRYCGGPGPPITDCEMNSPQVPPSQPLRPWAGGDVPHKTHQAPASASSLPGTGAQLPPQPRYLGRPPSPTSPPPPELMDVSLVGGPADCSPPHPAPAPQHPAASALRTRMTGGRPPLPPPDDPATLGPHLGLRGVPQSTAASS

COc1ccc(NC(=O)Nc2ccc3c(c2)C(=O)N([C@@H](C)CO)C[C@H](C)[C@H](CN(C)Cc2ccc4c(c2)OCO4)O3)cc1 [BRD-7880]
Percent Control [1]: 48% | Percent Control [2]: 55% | Percent Control [3]: 84% | phosphorylation of serine 10 on histone H3 [4]: decrease phosphorylation of serine 10 on histone H3 | Percent Control [5]: 60% | Percent Control [6]: 72% | Percent Control [7]: 43% | Percent Control [8]: 100% | Percent Control [9]: 90% | Percent Control [10]: 80% | Percent Control [11]: 38% | Percent Control [12]: 100% | Percent Control [13]: 100% | Percent Control [14]: 85% | Percent Control [15]: 84% | Percent Control [16]: 84% | Percent Control [17]: 94% | Percent Control [18]: 69% | Percent Control [19]: 77% | Percent Control [20]: 56% | Percent Control [21]: 100% | Percent Control [22]: 97% | Percent Control [23]: 100% | Percent Control [24]: 95% | Percent Control [25]: 91% | Percent Control [26]: 76% | Percent Control [27]: 77% | Percent Control [28]: 66% | Percent Control [29]: 70% | Percent Control [30]: 80% | Percent Control [31]: 100% | Percent Control [32]: 100% | Percent Control [33]: 71% | binding to aurora kinase B [34]: 0.5 % of control | Percent Control ([34]; AURKB): 0.5% | Percent Control [35]: 100% | Percent Control [36]: 77% | Percent Control [37]: 100% | Percent Control [38]: 100% | Percent Control [39]: 94%
